Where a name gives a salt, the structure may show the parent alone.

The target in this experiment is T1, human IKK-β (Homo sapiens, UniProt O14920).
T1 construct: A cDNA fragment encoding human IKK-β open reading frame was generated by PCR; His tag (from pcDNA3.1/His C); made in house; host or cells: Sf21 insect cells (baculovirus); substrate made in E. coli
T1 sequence (O14920 1-756): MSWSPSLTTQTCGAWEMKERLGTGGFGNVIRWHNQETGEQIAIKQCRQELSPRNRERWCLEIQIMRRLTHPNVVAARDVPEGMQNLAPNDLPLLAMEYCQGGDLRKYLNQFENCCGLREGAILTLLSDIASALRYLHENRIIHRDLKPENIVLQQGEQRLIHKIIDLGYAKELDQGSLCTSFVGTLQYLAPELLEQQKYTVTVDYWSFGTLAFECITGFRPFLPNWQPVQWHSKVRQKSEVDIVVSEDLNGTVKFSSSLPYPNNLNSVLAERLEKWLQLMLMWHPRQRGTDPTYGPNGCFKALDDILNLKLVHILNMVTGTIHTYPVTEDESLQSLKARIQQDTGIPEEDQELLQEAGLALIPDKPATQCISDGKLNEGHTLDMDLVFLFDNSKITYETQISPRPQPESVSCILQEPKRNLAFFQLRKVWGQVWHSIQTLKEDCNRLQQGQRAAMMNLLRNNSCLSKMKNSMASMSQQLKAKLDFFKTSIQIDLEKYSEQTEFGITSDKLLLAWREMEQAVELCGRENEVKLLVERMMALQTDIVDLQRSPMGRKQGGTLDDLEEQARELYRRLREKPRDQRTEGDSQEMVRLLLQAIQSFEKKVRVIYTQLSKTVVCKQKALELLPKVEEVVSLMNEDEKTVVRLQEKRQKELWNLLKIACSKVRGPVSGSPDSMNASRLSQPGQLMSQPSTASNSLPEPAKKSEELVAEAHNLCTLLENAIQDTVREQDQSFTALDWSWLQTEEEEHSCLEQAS
Kind of experiment: IKK-β kinase inhibitory assay. The experiment is classed as biochemical. As to conditions: compounds as yielded by solid phase synthesis, purity about 40 to 90%, read-out: In vitro activity grade (In vitro IC50). The procedure, abridged: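 His-tagged human IKK-β from baculovirus-infected Sf21 cells (0.6 μg/ml final) phosphorylates biotinylated GST-IκBα(1-54) (0.2 μM) in Tris-HCl pH 7.6 buffer with MgCl2. ATP with [γ-33P]ATP added, then 2 h at room temperature. Biotinylated substrate captured on streptavidin plates; bound radioactivity counted by scintillation.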
For the compound `CCOC(=O)NCc1c(C2CCCNC2)cc(-c2c(O)cccc2OCC2CC2)nc1N` (centres unmarked) [Example 23-2, ethyl [2-amino-6-[2-(cyclopropylmethoxy)-6-hydroxyphenyl]-4-(3-piperidinyl)-3-pyridinyl]methylcarbamate hydrochloride], the half-inhibitory concentration (IC50) (usually the midpoint of a concentration-inhibition curve) is below 500 nM.
Turning to `Nc1nc(-c2c(O)cccc2OCC2CC2)cc(C2CCCNC2)c1CNC(=O)NC1CCCCC1` (centres unmarked) [Example 23-3, N-{[2-amino-6-[2-(cyclopropylmethoxy)-6-hydroxyphenyl]-4-(3-piperidinyl)-3-pyridinyl]methyl}-N′-cyclohexylurea hydrochloride], the IC50 is below 500 nM.
On to `CC(=O)N1Cc2c(C3CCCNC3)cc(-c3c(O)cccc3OCC3CC3)nc2NC1=O` (centres unmarked) [Example 24-1, 3-acetyl-7-[2-(cyclopropylmethoxy)-6-hydroxyphenyl]-5-(3-piperidinyl)-3,4-dihydropyrido[2,3-d]pyrimidin-2(1H)-one hydrochloride], for which the 50% inhibitory concentration (IC50) is below 500 nM.
The same measure for `Oc1cccc(OCC2CC2)c1-c1cc(C2CCCNC2)c2c(n1)NCCC2` (centres unmarked) [Example 28-01, 3-(cyclopropylmethoxy)-2-[4-(3-piperidinyl)-5,6,7,8-tetrahydro-1,8-naphthyridin-2-yl]phenol]: below 500 nM.
On to `Nc1cc2c(C3CCCNC3)cc(-c3c(O)cccc3OCC3CC3)nc2[nH]c1=O` (centres unmarked) [Example 29-01, 3-amino-7-[2-(cyclopropylmethoxy)-6-hydroxyphenyl]-5-(3-piperidinyl)-1,8-naphthyridin-2(1H)-one hydrochloride], for which the half-maximal inhibitory concentration (IC50) was below 500 nM.
`O=C(Nc1cc2c(C3CCCNC3)cc(-c3c(O)cccc3OCC3CC3)nc2[nH]c1=O)c1ccccc1` (centres unmarked) [Example 29-2, N-[7-[2-(cyclopropylmethoxy)-6-hydroxyphenyl]-2-oxo-5-(3-piperidinyl)-1,2-dihydro-1,8-naphthyridin-3-yl]benzamide hydrochloride]: the half-inhibitory concentration (IC50) is below 500 nM.
With `CC(=O)Nc1cc2c(C3CCCNC3)cc(-c3c(O)cccc3OCC3CC3)nc2[nH]c1=O` (centres unmarked) [Example 29-3, N-[7-[2-(cyclopropylmethoxy)-6-hydroxyphenyl]-2-oxo-5-(3-piperidinyl)-1,2-dihydro-1,8-naphthyridin-3-yl]acetamide hydrochloride], the half-inhibitory concentration (IC50) is below 500 nM.
On to `O=C(O)c1cc2c(C3CCCNC3)cc(-c3c(O)cccc3OCC3CC3)nc2[nH]c1=O` (centres unmarked) [Example 30-1, 7-(2-cyclopropylmethoxy-6-hydroxy-phenyl)-2-oxo-5-piperidin-3-yl-1,2-dihydro[1,8]naphthyridine-3-carboxylic acid hydrochloride], for which the IC50 was below 500 nM.
For the compound `CCCNC(=O)c1cc2c(C3CCCNC3)cc(-c3c(O)cccc3OCC3CC3)nc2[nH]c1=O` (centres unmarked) [Example 31-1, 7-[2-(cyclopropylmethoxy)-6-hydroxyphenyl]-2-oxo-5-(3-pipedinyl)-N-propyl-1,2-dihydro-1,8-naphthyridine-3-carboxamide], the half-inhibitory concentration (IC50) is below 500 nM.
With `CS(=O)(=O)NC(=O)c1cc2c(C3CCCNC3)cc(-c3c(O)cccc3OCC3CC3)nc2[nH]c1=O` (centres unmarked) [Example 31-2, N-{[7-[2-(cyclopropylmethoxy)-6-hydroxyphenyl]-2-oxo-5-(3-piperidinyl)-1,2-dihydro-1,8-naphthyridin-3-yl]carbonyl}methanesulfonamide hydrochloride], the 50% inhibitory concentration (IC50) was below 500 nM.
The same measure for `Nc1ncnc2nc(-c3c(O)cccc3OCC3CC3)cc(C3CCCNC3)c12` (centres unmarked) [Example 32-1, 2-[4-amino-5-(3-piperidinyl)pyrido[2,3-d]pyrimidin-7-yl]-3-(cyclopropylmethoxy)phenol hydrochloride]: 2000 to 10000 nM; for `N#Cc1ccc(-c2ccccc2O)nc1N` [Example 33-1, 2-amino-6-(2-hydroxyphenyl)nicotinonitrile]: 500 to 2000 nM.
`N#Cc1c(N2CCOCC2)cc(-c2ccccc2O)nc1N` [Example 34-1, 2-amino-6-(2-hydroxyphenyl)-4-(4-morpholinyl)nicotinonitrile]: the half-inhibitory concentration (IC50) was 500 to 2000 nM.
As for `N#Cc1c(N2CCC(C(N)=O)CC2)cc(-c2ccccc2O)nc1N` [Example 34-2, 1-[2-amino-3-cyano-6-(2-hydroxyphenyl)-4-pyridinyl]-4-piperidinecarboxamide], the half-maximal inhibitory concentration (IC50) fell in the range of 500 to 2000 nM.
With `N#Cc1c(N2CCCC(N)C2)cc(-c2ccccc2O)nc1N` (centres unmarked) [Example 34-3, 2-amino-4-(3-amino-1-piperidinyl)-6-(2-hydroxyphenyl)nicotinonitrile hydrochloride] the figure was 500 to 2000 nM.
Take `N#Cc1c(NC2CCCNC2)cc(-c2ccccc2O)nc1N` (centres unmarked) [Example 34-4, 2-amino-6-(2-hydroxyphenyl)-4-(3-piperidinylamino)nicotinonitrile hydrochloride]: the concentration for half-maximal inhibition (IC50) was below 500 nM.
As to `NCCNc1cc(-c2c(O)cccc2OCC2CC2)nc2c1COC(=O)N2` [Example 35-1, 5-[(2-aminoethyl)amino]-7-[2-(cyclopropylmethoxy)-6-hydroxyphenyl]-1,4-dihydro-2H-pyrido[2,3-d][1,3]oxazin-2-one hydrochloride], the half-inhibitory concentration (IC50) is below 500 nM.

For the origin of these results see US6984649B1, “Pyridine derivatives” (Bayer Aktiengesellschaft, priority 2000, dated 2006).
